This is an account of results in patent US9809584B1, “Sulfur-containing oxazine compound and synthesis method thereof” (National Tsing Hua University, priority 2016, dated 2017).

The subject of assay [1] is staphylococcus ATTC6341(Sa). The assay can be described thus: Antibacterial activity, zone of inhibition, penicillin sensitive Sa strain. In kind it is cell-based. The method, then: (§1) Next, the antibacterial activity of the prepared sulfur-containing BPA-FBz compounds is evaluated using two strains of staphylococcus ATTC6341(Sa) and ATTC11632(Sr), and the results are shown in Table 2. In particular, the Sa strain and the Sr strain have different sensitivities to antibiotics. The Sa strain is penicillin sensitive, and the Sr strain is penicillin resistant, and ampicillin is used as positive control. It can be known from Table 2 that, none of BPA-FBz and sulfur-containing BPA-FBz compounds having low sulfur content (i.e., compounds 1 and 2) has antibacterial activity.

Assay [2] concerns staphylococcus ATTC11632(Sr). The assay can be described thus: Antibacterial activity, zone of inhibition, penicillin resistant Sr strain. In kind it is cell-based. The method, then:
as §1

The mark [3] stands for this setting: dash = no antibacterial activity.

With `CC(C)(c1ccc2c(c1)CN(Cc1ccco1)CO2)c1ccc2c(c1)CN(Cc1ccco1)CO2` [BPA-FBz, bis(3-furfuryl-3,4-dihydro-2H-1,3-benzoxazinyl)isopropane], the “antibacterial activity (in words)” value in assay [1] and in assay [2] was “none” each time.
For `CC1(C)S[C@@H]2[C@H](NC(=O)[C@H](N)c3ccccc3)C(=O)N2[C@H]1C(=O)O` [Ampicillin, ampicillin], the Zone of inhibition in assay [1] (setting [3]) is listed as 34.0 mm; in assay [2] (setting [3]), 9.0 mm.
